# ChEMBL document CHEMBL1131718, “Syntheses of (+/-)-shinflavanone and its structural analogues as potent inhibitors of bone resorption pits formation” (Bioorg Med Chem Lett, 1999)
# Tests used:
# Assay type in all cases: functional
# [1] = Cytotoxicity of compound was measured on osteoclastic cells.
# [2] = Ability to inhibit the resorption pits formation by osteoclast-like cell(OCL) induced by 1-alpha,25-dihydroxy vitamin D3 at conc. 1.11 ug/ml.
# [3] = Ability to inhibit the resorption pits formation by osteoclast-like cell(OCL) induced by 1-alpha,25-dihydroxy vitamin D3 at conc. 0.37 ug/ml.
# [4] = Bone resorption pits formation by osteoclast-like cell(OCL) induced by 1-alpha,25-dihydroxy vitamin D3 at 0.37 ug/ml concentration
# [5] = Ability to inhibit the resorption pits formation by osteoclast-like cell(OCL) induced by 1-alpha,25-dihydroxy vitamin D3 at conc. 10.00 ug/ml.
# [6] = Bone resorption pits formation by osteoclast-like cell(OCL) induced by 1-alpha,25-dihydroxy vitamin D3 at 1.11 ug/ml concentration
# [7] = Bone resorption pits formation by osteoclast-like cell(OCL) induced by 1-alpha,25-dihydroxy vitamin D3 at 10 ug/ml concentration
# [8] = Ability to inhibit the resorption pits formation by osteoclast-like cell(OCL) induced by 1-alpha,25-dihydroxy vitamin D3.
# [9] = Ability to inhibit the resorption pits formation by osteoclast-like cell(OCL) induced by 1-alpha,25-dihydroxy vitamin D3 at conc. 3.33 ug/ml.
# [10] = Bone resorption pits formation by osteoclast-like cell(OCL) induced by 1-alpha,25-dihydroxy vitamin D3 at 3.33 ug/ml concentration
Structure (SMILES),CC50 [1] [µg/mL],inhibition at 1.11 µg/mL [2] [%],inhibition at 0.37 µg/mL [3] [%],No. of pits [4],inhibition at 10 µg/mL [5] [%],No. of pits [6],No. of pits [7],IC50 [8] [µg/mL],inhibition at 3.33 µg/mL [9] [%],No. of pits [10]
CC(C)=CCc1cc(C2CC(=O)c3cc(CC=C(C)C)c(O)c(CC=C(C)C)c3O2)ccc1O (centres undefined),10.4,18.9,< 5,150,45.2,120,80,10.9,24.4,108
CC(C)=CCc1cc(C2CC(=O)c3ccc4c(c3O2)C=CC(C)(C)O4)ccc1O (centres undefined),16.8,54.1,48.3,74,78.1,68,32,0.7,62.2,54
CC(C)=CCc1cc(C2CC(=O)c3cc(CC=C(C)C)c(O)cc3O2)ccc1O (centres undefined),18.2,41.2,21.7,112,84.2,87,23,5.7,41.3,84
CO[C@H]1[C@@H](OC)C[C@H](C)[C@@H](OC)C2=CC(=O)C=C(NC(=O)/C(C)=C/C=C/[C@H](OC)[C@@H](OC(N)=O)/C(C)=C/[C@@H]1C)C2=O [HERBIMYCIN],1.72,50.7,37.8,–,–,–,–,1.1,–,–
